Results: patent publication US7304174B2, “CaSR antagonist” (Japan Tobacco Inc., priority 2003, dated 2007)

Target: T1, human calcium receptor (Homo sapiens, UniProt P41180)
T1 construct: expressed in transfected cells; host or cells: cell strain derived from rat adrenal, co-transformed with luciferase cDNA
T1 sequence (P41180 20-1078): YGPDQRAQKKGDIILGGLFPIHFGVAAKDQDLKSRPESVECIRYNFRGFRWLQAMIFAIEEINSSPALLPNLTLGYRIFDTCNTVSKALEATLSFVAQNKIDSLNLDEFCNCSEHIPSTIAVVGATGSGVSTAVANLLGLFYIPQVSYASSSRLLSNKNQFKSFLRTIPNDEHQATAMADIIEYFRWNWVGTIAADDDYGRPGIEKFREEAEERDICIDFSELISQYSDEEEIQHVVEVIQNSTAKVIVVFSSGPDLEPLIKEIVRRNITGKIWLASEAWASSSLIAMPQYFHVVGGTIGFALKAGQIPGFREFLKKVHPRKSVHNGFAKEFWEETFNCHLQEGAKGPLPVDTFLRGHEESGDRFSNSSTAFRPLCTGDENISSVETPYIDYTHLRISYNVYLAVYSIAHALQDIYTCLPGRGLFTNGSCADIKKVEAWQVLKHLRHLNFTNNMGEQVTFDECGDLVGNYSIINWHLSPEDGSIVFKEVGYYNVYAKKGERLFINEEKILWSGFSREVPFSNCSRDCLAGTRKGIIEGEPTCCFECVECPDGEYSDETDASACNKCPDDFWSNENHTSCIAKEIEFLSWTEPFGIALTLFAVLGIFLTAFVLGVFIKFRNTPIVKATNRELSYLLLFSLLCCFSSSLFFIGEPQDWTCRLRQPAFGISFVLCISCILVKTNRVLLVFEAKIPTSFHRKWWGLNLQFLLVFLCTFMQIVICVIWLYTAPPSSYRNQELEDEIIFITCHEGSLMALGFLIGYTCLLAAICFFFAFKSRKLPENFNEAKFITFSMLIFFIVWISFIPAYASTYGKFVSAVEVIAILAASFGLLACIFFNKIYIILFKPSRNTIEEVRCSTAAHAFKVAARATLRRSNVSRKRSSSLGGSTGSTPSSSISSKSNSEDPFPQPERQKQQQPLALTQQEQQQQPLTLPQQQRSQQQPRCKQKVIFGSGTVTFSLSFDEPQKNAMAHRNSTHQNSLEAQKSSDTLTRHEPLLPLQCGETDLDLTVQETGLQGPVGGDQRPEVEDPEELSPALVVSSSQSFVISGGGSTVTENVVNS
Assay: Evaluation of antagonistic action on calcium receptor using reporter gene (luciferase)
Format: cell-based
Details: transformed rat adrenal derived cells, 5 mM calcium chloride, culture 4 hrs, luciferase activity; read-out: Reporter gene assay (IC50, concentration showing 50% inhibitory rate)
Method in brief: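 Rat adrenal-derived cells transfected with luciferase and human calcium receptor cDNA, in F12 with 0.5% dialyzed horse serum and 0.25% dialyzed fetal bovine serum. Luciferase luminescence gave % inhibition vs control and blank; IC50 at 50% inhibition.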

- IC50: 24 nM
Compound: Cc1ccc(CC(C)(C)NC[C@@H](O)CO[C@H](C)c2ccccc2-c2ccc(C(=O)O)c(C)c2)cc1F [Example 1-1, 2′-[(1R)-[(2R)-3-[[1-(3-Fluoro-4-methylphenyl)-2-methylpropan-2-yl]amino]-2-hydroxypropoxy]ethyl]-3-methylbiphenyl-4-carboxylic acid]
